# “And” between values parts separate entries of the source, which are not always exact repeats. Identical values can stand only once.
# Tests used:
# [1] = tested on: calf spine segments (intervertebral disc annular tissue); assay: Four-point lateral bending test of spine segments after unilateral injection of crosslinking reagent; settings: for Change in Stiffness: Compression side / Change in Stiffness: Tensionon side: neutral zone bending stiffness versus pre-treatment control; for Change in Stiffness: Compression side: treated side in compression; for Change in Stiffness: Tensionon side / Loss of Hysteresis: treated side in tension; for Loss of Hysteresis: versus pre-treatment control of same specimen
# From the text: Experiments utilized 5 calf spine segments, each segment comprised of 3 lumbar intervertebral joints (motion segments), four vertebrae and the intervening 3 discs. The pedicles were cut and the posterior processes removed. The segments were randomly divided into a 0.33% by weight genipin crosslinked group, a 0.5% genipin group, a 0.66% genipin group, and a 0.66% genipin plus 0.1% proanthocyanidin group. Each group consisted of one 3 motion segment specimen. Each pre-treated spine served as its own control. Repeated testing was performed on some untreated and treated specimens to determine repeatability of the measurements. Additional appropriate concentrations and combinations of known minimally cytotoxic crosslinking reagents will be chosen based on the documented cytotoxicity of a particular tissue. […] Similar testing will be conducted on fresh-non-frozen animal tissue with appropriate sterilization procedures and antibiotics to prevent tissue degradation. Sugar solutions will be injected unilaterally into fresh intervertebral discs to induce non-enzymatic glycation crosslinks over a period of sterile incubation.
# Four-point lateral bending tests were conducted using an MTS 858 materials testing system with custom fixtures while load and displacement were recorded digitally. First the specimens were cleaned of muscle and other non-load supporting tissues, and then the terminal vertebrae were potted in polyurethane to half their height in square molds. The potted spine segments are then placed on the bottom 2 rollers such that the lateral sides of the spines were positioned in a vertical plane. The bending load was actuated by 2 upper rollers in contact with the central two vertebrae of the segment. Care was taken to ensure that the pre- and post-treatment positioning of the specimens on the rollers was similar. As an attribute of 4-point bending, the central region of the test specimen, including the central disc between the 2 upper rollers, has an […] bending moment. A ramp load to 100 N (0.5 mm/s) was applied in right and left lateral bending to each spine both prior to treatment and after crosslinking treatment.
# The crosslinking reagents were delivered to each of the discs in each spine specimen by 2 to 3 injections into one lateral side of the spine. Each injection was comprised of 1 cc of reagent. A 26 gauge hypodermic needle was used. The treated segments were allowed to sit in a closed container wrapped in moist paper towels for 36 hours prior to final testing. After testing, the discs were cut transversely to visually document the region of the tissue contacted by the reagents.
# Resistance to lateral bending and lateral bending stability were assessed by two measures, one elastic-plastic, the other viscoelastic. The first was the neutral zone (low-load) bending stiffness evidenced by the amount of deformation from 0.1 to 100 N of deforming force. The second was the hysteresis or bending energy lost or not stored by the tissues. Less hysteresis, or a lower percentage of hysteresis compared to strain energy or the amount of bending energy stored and returned, corresponds to greater capacity to bounce back from a bend rather than remain in the deformed position. It also reflects a more elastic, spring-like response as compared to a more viscous response.
# [2] = tested on: posterior intervertebral disc (lumbar intervertebral joints); assay: Indentation stress relaxation of posterior annulus before and after compression/flexion fatigue cycling; set-up: species or system calf; settings: for change in relaxation due to 6000 fatigue cycles versus controls (fatigue resistance): 72 hours soaking (G1 0.033%, G2 0.33% Genipin in PBS), 6000 cycles at 200 N, 0.25 Hz; for initial pre-fatigue relaxation less than the pre-fatigue relaxation of the controls: 72 hours soaking in PBS with Genipin (G1 0.033%, G2 0.33%), before fatigue cycling
# Procedure: (§1) Thirty-three lumbar intervertebral joints were obtained from ten four-month-old calf spines. The intervertebral joints were arbitrarily divided into 3 groups: untreated controls-12 specimens, Genipin treatment 1 (G1)-6 specimens, and Genipin treatment 2 (G2)-13 specimens. The G1 treatment involved 72 hours of soaking the whole specimen in PBS with a 0.033% concentration of Genipin. Similarly the G2 treatment involved 72 hours of soaking whole specimens in PBS with 0.33% concentration of Genipin. 0.33% Genipin in PBS is produced by dilution of 50 ml of 10 times. PBS (Phosphate Buffered Saline) with distilled water by a factor of 10 to give 500 ml (500 gm) of PBS and mixing in 1.65 grams of genipin to produce the 0.33% (wt %, gm/gm) solution. […] Some controls were not subjected to soaking prior to fatigue testing. Others were soaked in a saline solution for 72 hours. Water mass loss experiments were conducted to establish the equivalency of outer annulus hydration between the genipin soaked and 0.9% saline soaked controls. The selection of treatments was randomized by spine and level. The vertebral ends of the specimens were then potted in polyurethane to facilitate mechanical testing. At the prescribed points in the loading regimen, indentation testing was used to find viscoelastic properties as follows. Stress relaxation data was gathered by ramp loading the 3 mm diameter hemi-spherical indenter to 10 N and subsequently holding that displacement for 60 s, while recording the resulting decrease in stress, referred to as the stress relaxation. Indentation testing was also utilized to determine elastic-plastic properties by calculating a hardness index (resistance to indentation) from ramp loading data. Prior to recording hardness measurements, the tissue is repeatedly indented 10 times (60 s/cycle, to the displacement at an initial 10 N load). This test protocol is based on two principles. First, viscoelastic effects asymptotically decrease with repeated loading. Secondly, hardness measurements are sensitive to the loading history of the tissue. However this effect becomes negligible following 10 loading cycles. In order to minimize these effects, viscoelastic data (stress relaxation) was collected from tissue that had not previously been indented. Alternately, elastic-plastic data (hardness) was collected from tissue that had been repeatedly loaded (preconditioned). In this case, repetitive indentation was intended to reduce the undesired effects of the changing viscoelastic properties, namely lack of repeatability, on hardness measurements. These testing procedures were derived from several preliminary experiments on the repeatability of the measurements with variations of loading history and location. Following initial indentation testing, the specimen was loaded repetitively in flexion-compression at 200 N for 3000 cycles at a rate of 0.25 Hz. The load was applied perpendicularly to the transverse plane, 40 mm anterior to the mid-point of the specimen in the transverse plane. A second set of indentation testing data is then collected following fatigue cycling. This procedure was followed for two fatigue loading cycles. During all testing, the specimens were wrapped in saline wetted gauze to maintain their moisture content. […] Several statistical measures were calculated to evaluate the significance of the results. […]
# [3] = tested on: posterior intervertebral disc (lumbar intervertebral joints); assay: Indentation hardness of posterior annulus before and after compression/flexion fatigue cycling; set-up: species or system calf; settings: for persistence of hardness improvement under fatigue cycling: 0.33% Genipin soak, up to 3000 fatigue cycles
# Procedure: as §1, with “measurements.” for “measurements. These testing procedures were derived from several preliminary experiments on the repeatability of the measurements with variations of loading history and location. Following initial indentation testing, the specimen was loaded repetitively in flexion-compression at 200 N for 3000 cycles at a rate of 0.25 Hz. The load was applied perpendicularly to the transverse plane, 40 mm anterior to the mid-point of the specimen in the transverse plane. A second set of indentation testing data is then collected following fatigue cycling. This procedure was followed for two fatigue loading cycles. During all testing, the specimens were wrapped in saline wetted gauze to maintain their moisture content.”
# [4] = tested on: intervertebral discs (nucleus pulposus, inner and outer annulus fibrosus); assay: Hydration change / fluid flux of disc regions after soaking, creep loading and resoaking; set-up: species or system calf (4 month old bovine); settings: for Water content, Gr C2: 0.33% Genipin 2 days, then 750N creep loading 1 hour; for % increase by Genipin (flux versus control) / Genipin Flux / % increase by Genipin (fluid flow into and out of the nucleus versus control): 0.33% genipin; for Water content, Gr B2: 1 day PBS then 2 days 0.33% genipin solution; for Water content, Gr D2: 0.33% genipin 2 days, 750N creep 1 hour, PBS another day
# From the text: By measuring the change in hydration of different regions of the intervertebral disc (nucleus pulposus, inner annulus, and outer annulus fibrosus) prior to and after periods of soaking, sustained compressive loading, and resoaking, the fluid flux to and from different regions can be determined. By comparing these measurements between control discs and discs treated with crosslinking reagents known to have minimal cytotoxicity, we see the effect of crosslinking treatment on fluid flux and permeability. A total of 24 calf (4 month old bovine) intervertebral discs were used for this study. Water content of three different areas of the […] tissue were tested-the nucleus pulposus, inner annulus fibrosus and outer annulus fibrosus. Hydration change was determined by weighing the specimen using a micro-balance (sensitivity: 0.1 mg). Water content (M) was calculated as: M=(Wet Weight-Dry Weight)/Wet Weight=g H2O/g Wet Weight The drying procedure consisted of putting the specimens in the oven with a controlled temperature of 90 degree C. for 24 hours. The specimens were separated into four tests: 1. Group A: Three specimens were in this group. It served as a control group. The specimens were soaked in PBS (phosphate buffered saline) for 1 day and then the hydration analysis was performed. 2. Group B1: Four specimens were in this group. In addition to the one day PBS soaking, the specimens soaked in PBS for 2 more days as a control and then the hydration analysis was performed. Group B2: Five specimens were in this group. In addition to the one day PBS soaking, the specimens were soaked in 0.33% genipin solution for 2 days and then the hydration analysis was performed. 3. In group C, a small daytime amount of constant compressive loading (creep) was simulated. C1: Three specimens were in this group. The specimens were soaked in PBS for 3 days and then […] of compression was applied by a materials testing machine for 1 hour. The disc was compressed in a 5 degree of flexion posture produced by two rollers attached to the loading ram of the materials testing machine. The hydration analysis was performed immediately after the creep loading. C2: Three specimens were in this group. The specimens were soaked in 0.33% Genipin solution for 2 days after 1 day of PBS soaking and performed identical creep loading with […] compressive load. The hydration analysis was performed immediately after the creep loading. 4. In group D, the imbibition of water following a period of compressive loading that typically occurs in the night time as a person is in a recumbent posture was simulated. D1: The specimens were soaked in PBS solution for 3 days and then 1 hour of creep loading at 750 N was applied. After the creep loading, the specimens were placed in a container in 1 PBS for one more day followed by the hydration analysis. D2: Three specimens were included and were soaked in 0.33% genipin solution for 2 days after one day of PBS soaking. A creep load of […] for one hour was then applied. The specimens were put in PBS for another day followed by the hydration analysis.
# [5] = compared to other more commonly used crosslinking agents; cited from earlier work
# [6] = tested on: collagenous, load-supporting tissues; settings: compared with other crosslinking reagents (Sung 1999b); cited from earlier work
# [7] = tested on: annulus fibrosus specimens from lumbar intervertebral discs; assay: Radial tear resistance test of annulus fibrosus specimens; set-up: species or system bovine; settings: soaked two days in 0.15M PBS plus 0.33% genipin
# From the text: Ten annulus fibrosus circumferentially aligned specimens from bovine lumbar (T12-L5) intervertebral discs were divided into two groups and either soaked two days in a 0.15M PBS or a 0.15M PBS plus 0.33% genipin solution. A custom loading fixture attached to a uniaxial materials testing system was designed to hold an annulus specimen perpendicular to the travel of a metal cylinder placed in a pre-existing radial cut. The cylinder was then pulled radially (perpendicular to lamellae) towards the external layer. Time dependent force and displacement data was acquired simultaneously. Tearing resistance was quantified in two ways: peak force normalized by specimen thickness and tearing energy per area of tear. Differences between groups were analyzed using the Mann-Whitney non-parametric test.
smiles,measurement,setting,value
"COC(=O)C1=CO[C@@H](O)[C@@H]2C(CO)=CC[C@H]12 [0.33G, genipin]",Change in Stiffness: Compression side,[1],29%
same,Change in Stiffness: Tensionon side,[1],17%
same,Loss of Hysteresis,[1],35%
"COC(=O)C1=CO[C@@H](O)[C@@H]2C(CO)=CC[C@H]12 [0.50G, genipin]",Change in Stiffness: Compression side,[1],−12% and −22%
same,Change in Stiffness: Tensionon side,[1],8% and 0.43%
"COC(=O)C1=CO[C@@H](O)[C@@H]2C(CO)=CC[C@H]12 [0.66G, genipin]",Change in Stiffness: Compression side,[1],8%
same,Change in Stiffness: Tensionon side,[1],6%
same,Loss of Hysteresis,[1],20%
"COC(=O)C1=CO[C@@H](O)[C@@H]2C(CO)=CC[C@H]12 [G1, Genipin]",change in relaxation due to 6000 fatigue cycles versus controls (fatigue resistance),[2],did not bring about the same improvement in fatigue resistance
same,initial pre-fatigue relaxation less than the pre-fatigue relaxation of the controls,[2],26%
"COC(=O)C1=CO[C@@H](O)[C@@H]2C(CO)=CC[C@H]12 [G2, Genipin]",change in relaxation due to 6000 fatigue cycles versus controls (fatigue resistance),[2],less than a third of the change in the controls
same,initial pre-fatigue relaxation less than the pre-fatigue relaxation of the controls,[2],19%
same,persistence of hardness improvement under fatigue cycling,[3],appears to have eroded prior to 3000 fatigue cycles
same,change in hardness between 3000 and 6000 cycles,"[3]; G2: 0.33% Genipin, Brinnell's hardness index",−0.94
same,initial pre-fatigue hardness greater than that of the control group,"[3]; G2: 72 hours soaking in PBS with 0.33% Genipin, before fatigue cycling",17%
COC(=O)C1=CO[C@@H](O)[C@@H]2C(CO)=CC[C@H]12 [genipin],"Water content, Gr C2",[4]; Inner AF,0.7394 g H2O/g Wet Weight
same,% increase by Genipin (flux versus control),[4]; Inner AF,17.3%
same,Genipin Flux,[4]; Inner AF,0.1008
same,"Water content, Gr B2",[4]; Inner AF,0.7629 g H2O/g Wet Weight
same,"Water content, Gr C2",[4]; NP,0.817 g H2O/g Wet Weight
same,% increase by Genipin (fluid flow into and out of the nucleus versus control),[4]; NP,64%
same,Genipin Flux,[4]; NP,0.04983
same,"Water content, Gr D2",[4]; NP,0.8524 g H2O/g Wet Weight
same,% increase by Genipin (fluid flow into and out of the nucleus versus control),"[4]; NP, listed as Genipin",63.7%
same,"Water content, Gr B2",[4]; NP,0.8314 g H2O/g Wet Weight
same,"Water content, Gr C2",[4]; Outer AF,0.6924 g H2O/g Wet Weight
same,% increase by Genipin (flux versus control),[4]; Outer AF,5.7%
same,Genipin Flux,[4]; Outer AF,0.05294
same,"Water content, Gr D2",[4]; Outer AF,0.711 g H2O/g Wet Weight
same,"Water content, Gr B2",[4]; Outer AF,0.7268 g H2O/g Wet Weight
same,cytotoxicity,[5],significantly less cytotoxicity
same,ultimate tensile strength and toughness,[6],greater ultimate tensile strength and toughness
same,Normalized peak force (peak force normalized by specimen thickness),[7],42.7 N/mm
same,Total energy per area of tear,[7],40.2 mJ/mm^2
same,reduction in viscoelastic degradation,[2]; soaking calf disc tissue in 0.33% concentration of genipin,More than a three-fold reduction
same,persistence of hardness improvement under fatigue cycling,[3],unable to sustain an improvement in the elastic mechanical properties (hardness) to 3000 test cycles

# From patent publication US8119599B2, “Direct application of non-toxic crosslinking reagents to resist progressive spinal degeneration and deformity” (Orthopeutics, L.P., priority 2001, dated 2012)
